Columns and labels:
[1] = test system: DLD-1; assay: Antimigratory activity against human DLD1 cells overexpressing PRL3 at 10 ug/ml after 20 hrs by crystal violet staining-based light microscopic analysis relative to control; type: functional; details: DLD-1, 20 h
[2] = biological target: Protein tyrosine phosphatase type IVA 3 (Homo sapiens, UniProt O75365); assay: Inhibition of human His6-tagged full length PRL3 assessed as inhibition of DiFMUP dephosphorylation at 5 ug/ml relative to control
Chain of Protein tyrosine phosphatase type IVA 3 (O75365 whole entry): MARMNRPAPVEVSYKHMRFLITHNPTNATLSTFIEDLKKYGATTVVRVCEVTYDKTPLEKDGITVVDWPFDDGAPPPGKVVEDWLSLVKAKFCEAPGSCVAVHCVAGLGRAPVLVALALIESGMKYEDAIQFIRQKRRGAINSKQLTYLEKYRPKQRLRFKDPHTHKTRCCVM

[3] = Cytotoxicity against human DLD1 cells overexpressing PRL3 assessed as cell viability at 10 ug/ml after 24 hrs by WST-1 assay relative to control; type: cell-based; details: DLD-1 cells overexpressing PRL3, read-out: Activity

| Compound | inhibition [2] [%] | inhibition at 10 µg/mL [1] [%] | viability at 24 h, 10 ug/ml [3] [%] |
| --- | --- | --- | --- |
| O=C1NC(=S)S/C1=C\C=C\c1cccnc1 | 47.1 | 45 | 105 |
| O=C1NC(=S)S/C1=C\C=C\c1ccccc1O | 51.9 | 65 | 96.3 |
| COc1ccccc1/C=C/C=C1\SC(=S)NC1=O | 41.7 | 69 | 98.8 |
| O=C1NC(=S)S/C1=C\C=C\c1ccccc1OCc1ccccc1Br | 63.1 | 78 | 78.8 |
| O=C1NC(=S)S/C1=C\C=C\c1cc(Br)ccc1OCc1ccccc1Br | 40.3 | 71 | 72.3 |
| O=C1NC(=S)S/C1=C\C=C\c1ccccc1OCc1ccccc1C(F)(F)F | 40.8 | 80 | 41.5 |
| COc1cccc(COc2ccccc2/C=C/C=C2\SC(=S)NC2=O)c1 | 52.9 | 82 | 87.1 |
| O=C1NC(=S)S/C1=C\C=C\c1ccccc1 | 37.4 | 81 | 96.6 |
| O=C1NC(=S)S/C1=C\C=C\c1ccccc1Cl | 53.9 | 80 | 81.9 |
| O=C1NC(=S)S/C1=C\C=C\c1ccccc1OCc1ccncc1 | 39.4 | 62 | 96.5 |
| O=C1NC(=O)/C(=C/C=C/c2ccccc2OCc2ccccc2Br)S1 | 22.5 | 50 | 37.7 |

Continued, in another order:

| inhibition [2] [%] | Compound | inhibition at 10 µg/mL [1] [%] | viability at 24 h, 10 ug/ml [3] [%] |
| --- | --- | --- | --- |
| 30.6 | O=C1NC(=S)S/C1=C\C=C\c1ccccc1OC(=O)c1ccccc1 | 40 | 99.2 |
| 49.5 | O=C1NC(=S)S/C1=C\C=C\c1ccccc1OCc1ccccc1 | 65 | 87.9 |
| 52.8 | Cc1ccccc1COc1ccccc1/C=C/C=C1\SC(=S)NC1=O | 73 | 75.5 |
| 64.2 | O=C1NC(=S)S/C1=C\C=C\c1ccccc1OS(=O)(=O)c1ccccc1 | 80 | 83.1 |
| 35.2 | O=C1NC(=S)S/C1=C\C=C\c1ccccc1NC(=O)c1ccccc1 | 68 | 97.1 |

— ChEMBL document CHEMBL2396625 (Bioorg Med Chem Lett, 2013)
